Experimental data from PubChem BioAssay AID248 (DTP/NCI, 2004).
“And” between values parts separate entries of the source, which are not always exact repeats. Equal values may be shown once. Toxic doses and inconclusive results are not listed.

System: L1210 leukemia ip in BDF1 mice, survival T/C
Experiment: NCI In Vivo Anticancer Drug Screen. Data for tumor model L1210 Leukemia (intraperitoneal) in B6D2F1 (BDF1) mice
Settings: higher = longer survival
Outline: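 Tumor was transplanted into mice, which were then dosed with test compound or vehicle alone. Survival was recorded for each group, and the treated figure was expressed relative to the control figure.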

For NC(=S)N/N=C/c1ccc(O)cn1, the T/C (endpoint: mean survival time, dose: 200.0 mg/kg/injection, schedule: Q## X008 (oral), vehicle: other) was 111 % of control, the T/C (endpoint: mean survival time, dose: 200.0 mg/kg/injection, schedule: Q## X016 (oral), vehicle: other) was 106 % of control and the T/C (endpoint: mean survival time, dose: 200.0 mg/kg/injection, schedule: Q## X024 (oral), vehicle: other) was 102 % of control. For the same compound, the T/C (endpoint: mean survival time, dose: 280.0 mg/kg/injection, schedule: Q01DX001 (ip), vehicle: saline with Tween-80) was 118 % of control and 119 % of control, the T/C (endpoint: mean survival time, dose: 300.0 mg/kg/injection, schedule: Q01DX001 (ip), vehicle: alkali diluted with saline) was 108 % of control and the T/C (endpoint: mean survival time, dose: 300.0 mg/kg/injection, schedule: Q01DX009 (ip), vehicle: saline with Tween-80) was 107 % of control. For the same compound, the T/C (endpoint: mean survival time, dose: 300.0 mg/kg/injection, schedule: Q08DX002 (ip), vehicle: alkali diluted with saline) was 105 % of control, the T/C (endpoint: mean survival time, dose: 400.0 mg/kg/injection, schedule: Q01DX001 (ip), vehicle: saline) was 109 % of control and the T/C (endpoint: mean survival time, dose: 400.0 mg/kg/injection, schedule: Q01DX001 (oral), vehicle: other) was 105 % of control. The T/C (endpoint: mean survival time, dose: 400.0 mg/kg/injection, schedule: Q01DX009 (oral), vehicle: carboxymethylcellulose (CMC)) was 153 % of control, the T/C (endpoint: mean survival time, dose: 400.0 mg/kg/injection, schedule: Q01DX009 (oral), vehicle: other) was 156 % of control and the T/C (endpoint: mean survival time, dose: 400.0 mg/kg/injection, schedule: Q01DX015 (ip), vehicle: carboxymethylcellulose (CMC)) was 103 % of control. For the same compound, the T/C (endpoint: mean survival time, dose: 400.0 mg/kg/injection, schedule: Q03HX024 (ip), vehicle: clinical formulation) was 98 % of control, the T/C (endpoint: mean survival time, dose: 400.0 mg/kg/injection, schedule: Q## X002 (oral), vehicle: other) was 105 % of control and the T/C (endpoint: mean survival time, dose: 400.0 mg/kg/injection, schedule: Q## X003 (ip), vehicle: other) was 150 % of control. For the same compound, the T/C (endpoint: mean survival time, dose: 400.0 mg/kg/injection, schedule: Q## X003 (oral), vehicle: other) was 116 % of control, the T/C (endpoint: mean survival time, dose: 400.0 mg/kg/injection, schedule: Q## X008 (oral), vehicle: other) was 110 % of control and the T/C (endpoint: mean survival time, dose: 400.0 mg/kg/injection, schedule: Q## X016 (oral), vehicle: other) was 120 % of control. For the same compound, the T/C (endpoint: mean survival time, dose: 400.0 mg/kg/injection, schedule: Q## X024 (oral), vehicle: other) was 122 % of control, the T/C (endpoint: mean survival time, dose: 427.0 mg/kg/injection, schedule: Q01DX001 (ip), vehicle: saline with Tween-80) was 121 % of control and 122 % of control and the T/C (endpoint: mean survival time, dose: 600.0 mg/kg/injection, schedule: Q01DX001 (ip), vehicle: alkali diluted with saline) was 108 % of control. The T/C (endpoint: mean survival time, dose: 600.0 mg/kg/injection, schedule: Q01DX005 (ip), vehicle: other) was 97 % of control, the T/C (endpoint: mean survival time, dose: 600.0 mg/kg/injection, schedule: Q01DX009 (ip), vehicle: other) was 108 % of control and the T/C (endpoint: mean survival time, dose: 600.0 mg/kg/injection, schedule: Q08DX002 (ip), vehicle: alkali diluted with saline) was 105 % of control. The T/C (endpoint: mean survival time, dose: 800.0 mg/kg/injection, schedule: Q01DX001 (oral), vehicle: other) was 106 % of control, the T/C (endpoint: mean survival time, dose: 800.0 mg/kg/injection, schedule: Q## X002 (oral), vehicle: other) was 115 % of control and the T/C (endpoint: mean survival time, dose: 800.0 mg/kg/injection, schedule: Q## X003 (oral), vehicle: other) was 107 % of control. The T/C (endpoint: mean survival time, dose: 800.0 mg/kg/injection, schedule: Q## X008 (oral), vehicle: other) was 123 % of control, the T/C (endpoint: mean survival time, dose: 800.0 mg/kg/injection, schedule: Q## X024 (oral), vehicle: other) was 155 % of control and the T/C (endpoint: mean survival time, dose: 833.0 mg/kg/injection, schedule: Q01DX001 (ip), vehicle: saline) was 153 % of control. For the same compound, the T/C (endpoint: mean survival time, dose: 1200.0 mg/kg/injection, schedule: Q01DX001 (ip), vehicle: other) was 158 % of control, the T/C (endpoint: mean survival time, dose: 1388.0 mg/kg/injection, schedule: Q01DX001 (ip), vehicle: saline) was 157 % of control and the T/C (endpoint: mean survival time, dose: 1600.0 mg/kg/injection, schedule: Q## X024 (ip), vehicle: other) was 104 % of control. For the same compound, the T/C (endpoint: mean survival time, dose: 2400.0 mg/kg/injection, schedule: Q01DX001 (ip), vehicle: saline) was 150 % of control and 152 % of control, the T/C (endpoint: mean survival time, dose: 2400.0 mg/kg/injection, schedule: Q## X016 (ip), vehicle: other) was 100 % of control and the T/C (endpoint: median survival time, dose: 37.5 mg/kg/injection, schedule: Q01DX009 (ip), vehicle: water) was 155 % of control and 157 % of control. For the same compound, the T/C (endpoint: median survival time, dose: 50.0 mg/kg/injection, schedule: Q01DX009 (ip), vehicle: other) was 150 % of control, the T/C (endpoint: median survival time, dose: 100.0 mg/kg/injection, schedule: Q04DX003 (ip), vehicle: other) was 105 % of control and the T/C (endpoint: median survival time, dose: 100.0 mg/kg/injection, schedule: Q04DX003 (sc), vehicle: other) was 100 % of control. The T/C (endpoint: median survival time, dose: 150.0 mg/kg/injection, schedule: Q01DX009 (ip), vehicle: water) was 122 % of control and 124 % of control, the T/C (endpoint: median survival time, dose: 200.0 mg/kg/injection, schedule: Q04DX003 (ip), vehicle: other) was 120 % of control and the T/C (endpoint: median survival time, dose: 300.0 mg/kg/injection, schedule: Q01DX009 (ip), vehicle: water) was 105 % of control and 106 % of control. The T/C (endpoint: median survival time, dose: 400.0 mg/kg/injection, schedule: Q04DX003 (ip), vehicle: other) was 100 % of control, the T/C (endpoint: median survival time, dose: 400.0 mg/kg/injection, schedule: Q04DX003 (sc), vehicle: other) was 120 % of control and the T/C (endpoint: median survival time, dose: 500.0 mg/kg/injection, schedule: Q01DX001 (ip), vehicle: saline) was 150 % of control. For the same compound, the T/C (endpoint: median survival time, dose: 1388.0 mg/kg/injection, schedule: Q01DX001 (ip), vehicle: saline) was 157 % of control.
